Here are results for six compounds from paper PMC12658820, “Development of Tunable Rose Bengal-Based nanoGUMBOS as Potential Selective Chemotherapeutic Agents” (ACS Omega, 2025).

A word on the IC50: it is the concentration that gives 50% inhibition.

Several values for one entry are separate records, joined by “and”; a condition that tells them apart may be missing. Equal entries are not always repeated. Entries after “also recorded” stand apart in the source; their conditions may differ. Structures can show the parent of a compound that is named as a salt.

One data set concerns A549 cells. Also noted: method as in numbers not shown in text. To be noted: literature comparison, ref numbers not shown in text; cited from earlier work.
The nature of data set [1]: Octanol/water partition experiments. Type of data set: physicochemical. The note with it: stirred 24 h, absorbance at 562 nm, triplicate.
Data set [2] can be described thus: Dynamic light scattering (DLS) nanoparticle size. Type of data set: physicochemical. The note with it: 10 μM solutions of nanoGUMBOS. Here is the method: (§1) The series of RB-based nanoGUMBOS was synthesized by a simple reprecipitation method to form nanoparticles from a 10 mM RB-based GUMBOS stock solution in MeOH or DMSO. Briefly, a small aliquot of a MeOH/DMSO solution of each RB-based GUMBOS was rapidly introduced into a large volume of an aqueous cell medium (Dulbecco’s modified Eagle’s medium (DMEM), containing 10% fetal bovine serum) or water under ultrasonication. In this condition, a supersaturation of the hydrophobic RB-based GUMBOS is achieved in the aqueous system, leading to the precipitation of the RB-based GUMBOS into small particles. After that, the solution was placed on the bench and allowed to rest for a period of 15 min to allow the nucleation of the nanoparticles.
(§2) Once the incubation period concluded, DLS and S-TEM instruments were used to characterize the nanoGUMBOS. Dynamic light scattering was performed using a Malvern Zetasizer. […] Each compound was scanned at 25 °C for 10 s each scan, and the system automatically adjusted the scans needed per run. S-TEM was employed via the use of a JEOL-SEM 7600F instrument, with a vacuum pressure of 1.9E^–4 Pa, electron beam at 30,000 V, and amplified current of […], with each micrograph content being produced at 8000× magnification. ImageJ software was used for the measurements of electron micrograph images. The polydispersity index from the TEM micrograph was calculated using eq . 1 PDI=sizedeviation(σ)/sizemean(μ)

Another data set can be described thus: S-TEM nanoparticle size. Type of data set: physicochemical. To be noted: for TEM mean size / TEM PDI: 10 μM solutions of nanoGUMBOS; for TEM PDI: size deviation/size mean. Here is the method: as §1, §2
The next data set can be described thus: DLS ζ-potential. Type of data set: physicochemical. To be noted: nanoGUMBOS, triplicate. The protocol:
Ultraviolet–visible (UV–vis) absorption was measured between 560 and 562 nm using a Jasco V-750 spectrophotometer for the characterization of GUMBOS and nanoGUMBOS experiments. Fluorescence excitation and emission spectra were recorded using a Jasco FP-8500 fluorescence spectrophotometer. Fourier transform infrared (FT-IR) spectra were collected using a Thermo Scientific Nicolet iS20 instrument with 256 scans and a resolution of 4 cm^–1. A JEOL JSM 7600F scanning electron microscope (SEM) was employed for surface imaging and analysis of samples. A Mettler Toledo pH meter was used for measuring the pH of the various solutions. Ultrafast liquid chromatography (UFLC) coupled with a SHIMADZU electrospray ionization-mass spectrometer (ESI-MS) system was used for the characterization of the synthesized GUMBOS. ^1H and ^13C NMR spectra were collected using a JEOL ECZL-400S NMR spectrometer (400 MHz, CCRL05) equipped with a 24-position autosample changer and autotune probe. Dynamic light scattering (DLS) and ζ-potential measurements were conducted by using a Malvern Zetasizer Nano-Series system. The blood–brain barrier permeability was assessed by using a Bioassay Systems Parallel Artificial Membrane Permeability Assay-BBB Kit. Confocal fluorescence imaging was performed using a Zeiss confocal laser scanning microscope, LSM-710, equipped with an inverted Axio Observer Z1 platform and Airyscan detection. Triple-deionized water was purified by using a Millipore Milli-Q system.
as §2, with “ImageJ software was used for the measurements of electron micrograph images.” left out, “1 PDI=sizedeviation(σ)/sizemean(μ)” left out

The subject of data set [3] is A549 lung carcinoma cells. In words: Confocal microscopy cell viability (DAPI-stained nuclei), A549. Type of data set: cell-based, human. To be noted: for average viability decrease, A549 / cell viability versus control, statistical significance, A549 / average cell viability, A549: 10 μM nanoGUMBOS; for cell viability versus control, statistical significance, A549: unpaired t-test; for selectivity index (SI): cytotoxicity of A549 cells / cytotoxicity of HEK293 cells; for nuclear morphology in fluorescence imaging: DAPI staining, in the dark, A549 and HEK293 imaged; for average cell viability, A549: no light activation, % of control. Here is the method: (§3) HEK293 or A549 Cells were collected from a T-25 culture flask following a standard cell culture harvesting procedure. A549 cells were diluted in cell culture media to a concentration of roughly 1,35,000 cells/mL. From this, the cells were loaded into individual chambers on an eight-chamber microscope slide, with a cell count per chamber of roughly 60,000 cells. This slide was then placed in an incubator (37 °C and 5.0% CO2 conditions) for 24 h before treating. When the treatment began, the original cell culture media was removed from the cells, and a compound/media mixture was added to each well. A control group of only cell culture media/DMSO was prepared and applied to one chamber in the slide, with the others consisting of treatment groups, following a serial dilution from 10 μM down to 0.15625 μM. After applying the treatment, the plate was returned to the incubator for 24 h. Following the incubation period, the cells were fixed using a 4% formaldehyde solution in the PBS buffer for 15 min at room temperature. After 15 min, the cells were washed three times with PBS. Then, to prepare the cells for staining, 0.5% Triton X-100 in PBS was applied to the cells for 15 min at room temperature. This was followed by three washes with PBS again. A 3% bovine serum albumin in PBS buffer was added to the cells for 60 min to block potential nonspecific binding sites for later 4′,6-diamidino-2-phenylindole (DAPI) staining. Another three washes with PBS were applied to the cells, and the cells were stained with a 1 μg/mL solution of DAPI and a mounting solution.
(§4) The imaging method employed fluorescence microscopy for nuclear staining visualization, allowing for an accurate quantification of viable cells based on intact nuclear morphology. ImageJ software was used to count the cell nuclei in each image. To avoid background signal, the software was set to only include nuclei of 20 μm^2 or larger. Viability quantification was performed by counting intact, properly stained nuclei and expressing results as a percentage of control values, with error bars representing standard error of the mean (SEM) from triplicate experiments. Statistical analysis was performed using unpaired t-tests with significance set at p < 0.05. Each nanoGUMBOS treatment was compared independently to control within the same cell lines, representing planned pairwise comparisons rather than exploratory testing. Given this, each nanoGUMBOS formulation that reduces cell viability will be assessed for an untreated cell line. Comparisons are made within discrete experimental groups for each cell line; thus, the unpaired t-test is employed. Dose–response curves and IC50 values were generated using a four-parameter logistic regression model implemented in Python (v3.12) within Jupyter Notebook (Anaconda distribution). Curve fitting was performed with the SciPy package (version 1.13), and figures were prepared using Matplotlib (v3.9). The rationale for selecting A549 (lung carcinoma) and HEK293 (noncancerous embryonic kidney) cell lines was based on their well-characterized nature and widespread use in cancer research, representing a relevant cancer model and a noncancerous control, respectively. […] Selectivity will be calculated using eq . 5 SI=cytotoxicityofA549cells/cytotoxicityofHEK293cells

The subject of data set [4] is HEK293 human embryonic kidney cells. Description: Confocal microscopy cell viability (DAPI-stained nuclei), HEK293. The class given is cell-based. To be noted: 10 μM nanoGUMBOS; for cell viability versus control, statistical significance, HEK293: unpaired t-test. Here is the method: as §3, §4

With `COc1cccc2c1C(=O)c1c(O)c3c(c(O)c1C2=O)C[C@@](O)(C(=O)CO)C[C@@H]3O[C@H]1C[C@H](N)[C@H](O)[C@H](C)O1` [Doxorubicin], the selectivity index in the data set on A549 cells is 1.5.
In the case of `CCCCCCCCCCCCn1cc[n+](C)c1.CCCCCCCCCCCCn1cc[n+](C)c1.O=C([O-])c1c(Cl)c(Cl)c(Cl)c(Cl)c1-c1c2cc(I)c(=O)c(I)c-2oc2c(I)c([O-])c(I)cc12` [[C12MIm]2[RB], 1-dodecyl-3-methylimidazolium Rose Bengal], the “K o/w (octanol–water partition constant)” value in data set [1] came out at 2.5. Further, in data set [2], the “DLS PDI” value was 0.37 and the DLS mean size was found to be 59.87 ± 8.23 nm. In the data set “S-TEM nanoparticle size”, the TEM mean size is given as 70.31 ± 16.43 nm and the “TEM PDI” value was 0.23. In “DLS ζ-potential”, the ζ-potential entry is on record as “≈ −30 mV”. Also, the “average viability decrease, A549” value in data set [3] (24 h) came to 77.4%. In data set [3], the “cell viability versus control, statistical significance, A549” value was “statistically significant reductions in cell viability; also recorded: statistically significant decrease in cell viability” and the “selectivity index (SI)” value was 2.1. In addition, the “nuclear morphology in fluorescence imaging” value (shortened to “nuclear morphology”) in data set [3] (nanoGUMBOS, 24 h) is on record as “altered nuclear morphology consistent with apoptotic processes”. Besides, in data set [3] (nanoGUMBOS, 24 h, four-parameter logistic fit, read-out: IC50 against A549 cells), the IC50 was 2.16 µM and 2.2 µM. The “cell viability decrease, HEK293” value in data set [4] (24 h) was 63.1%. Besides, the “cell viability, HEK293” value in data set [4] (24 h, % of control) was determined as 47.1%. For the same compound, in data set [4], the “cell viability versus control, statistical significance, HEK293” value is given as “statistically significant reductions in cell viability; also recorded: statistically significant decrease in cell viability”.
Turning to `O=C(O)c1c(Cl)c(Cl)c(Cl)c(Cl)c1-c1c2cc(I)c(=O)c(I)c-2oc2c(I)c(O)c(I)cc12` [[Na]2[RB], Rose Bengal disodium salt, reference compound], in data set [1], the “K o/w (octanol–water partition constant)” value came to 4.5. In data set [2], the “DLS PDI” value was found to be 0.58 and the DLS mean size is 230.9 nm. The DLS mean size in data set [2] (listed as [Na] 2 [RB]) is reported as 230.90 ± 17.89 nm. In “S-TEM nanoparticle size”, the TEM mean size is 268.62 ± 74.02 nm and the “TEM PDI” value was found to be 0.28. The compound also returned a ζ-potential in the data set “DLS ζ-potential” of −18.4 mV. In addition, in data set [3] (24 h), the “average cell viability, A549” value is given as 86.7%. For the same compound, the “cell viability versus control, statistical significance, A549” value in data set [3] is on record as “no statistically significant difference”. Besides, the “nuclear morphology” value in data set [3] (nanoGUMBOS, 24 h) is recorded as “minimal cellular changes”. Also, the “cell viability versus control, statistical significance, HEK293” value in data set [4] is given as “no statistically significant difference”.
For the compound `O=C([O-])c1c(Cl)c(Cl)c(Cl)c(Cl)c1-c1c2cc(I)c(=O)c(I)c-2oc2c(I)c([O-])c(I)cc12.c1ccc([P+](c2ccccc2)(c2ccccc2)c2ccccc2)cc1.c1ccc([P+](c2ccccc2)(c2ccccc2)c2ccccc2)cc1` [[TPP]2[RB], tetraphenylphosphonium Rose Bengal], in data set [1], the “K o/w (octanol–water partition constant)” value is 2.8. For the same compound, in data set [2], the “DLS PDI” value stood at 0.22 and the DLS mean size is reported as 40.66 nm. In data set [2] (listed as [TPP] 2 [RB]), this compound returned a DLS mean size of 40.66 ± 3.33 nm. Besides, in the data set “S-TEM nanoparticle size”, the TEM mean size was 45.33 ± 11.53 nm and the “TEM PDI” value came out at 0.24. Also, in the data set “S-TEM nanoparticle size” (nanoGUMBOS by reprecipitation), the “nanoparticle diameter (method not stated at the place)” value is reported as “below 100 nm”. Further, the ζ-potential entry in the data set “DLS ζ-potential” was “approximately −30 mV”. In addition, in data set [3] (24 h), the “average viability decrease, A549” value is listed as 57.2% and the “average cell viability, A549” value is “below 50%”. Moreover, in data set [3], the “cell viability versus control, statistical significance, A549” value was “statistically significant reductions in cell viability; also recorded: statistically significant decrease in cell viability” and the “selectivity index (SI)” value is listed as 1.5. Further, the “nuclear morphology” value in data set [3] (nanoGUMBOS, 24 h) was “altered nuclear morphology consistent with apoptotic processes”. Besides, the “cell viability versus control, statistical significance, HEK293” value in data set [4] is on record as “statistically significant reductions in cell viability; also recorded: statistically significant decrease in cell viability”.
Take `N.N.[Cl][Pt][Cl]` [cisplatin]: the selectivity index entry in the data set with A549 cells is given as “under 2”.
As to “tetrabutylphosphonium Rose Bengal [[TBP]2[RB]]”, in data set [3], the “cell viability versus control, statistical significance, A549” value is “no statistically significant difference”. Moreover, in data set [3] (nanoGUMBOS, 24 h), the “nuclear morphology” value was “minimal cellular changes”. The “cell viability versus control, statistical significance, HEK293” value in data set [4] is given as “no statistically significant difference”.
